Measured values as given in ChEMBL document CHEMBL1201862, “PubChem BioAssay data set” (2004).
Activity calls are given as the source filed them.

Assays:
[1] = target: Large T antigen (Simian virus 40, UniProt P03070); format: functional, Betapolyomavirus macacae;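 also: Confirmatory-stage PubChem screen for compounds that inhibit SV40 T antigen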
[2] = target: DNA dC->dU-editing enzyme APOBEC-3G (Homo sapiens, UniProt Q9HC16); assay: Dose Response confirmation of small molecule APOBEC3G DNA Deaminase Inhibitors via a fluorescence-based single-stranded DNA deaminase assay. [Related pubchem assays (depositor defined):AID493012, AID493028]; format: functional
DNA dC->dU-editing enzyme APOBEC-3G, sequence (Q9HC16 whole entry): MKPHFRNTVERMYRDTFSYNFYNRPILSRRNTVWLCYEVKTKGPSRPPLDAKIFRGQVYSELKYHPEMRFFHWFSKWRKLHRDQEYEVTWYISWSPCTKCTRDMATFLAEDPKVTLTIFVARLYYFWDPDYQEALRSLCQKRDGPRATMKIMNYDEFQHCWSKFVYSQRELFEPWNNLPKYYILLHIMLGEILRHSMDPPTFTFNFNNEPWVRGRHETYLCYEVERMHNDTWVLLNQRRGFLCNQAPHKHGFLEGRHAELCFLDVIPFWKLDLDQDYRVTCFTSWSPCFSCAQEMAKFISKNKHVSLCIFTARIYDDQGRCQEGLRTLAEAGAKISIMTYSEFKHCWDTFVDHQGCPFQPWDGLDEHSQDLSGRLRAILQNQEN

[3] = target: T1, Heat shock factor protein 1 (Mus musculus, UniProt P38532); assay: HSF1 potentiators in luciferase reporter cells, confirmation, cell-based, NIH3T3, luminescence, dose retest (AID 435004); format: functional;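 also: stress induced by proteasome inhibitor MG132 added 30 min after compound; luciferase reporter driven by HSF1 response element in NIH3T3 cells; actives raise luminescence as potentiators of the MG132 stress response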
T1 sequence (P38532 whole entry): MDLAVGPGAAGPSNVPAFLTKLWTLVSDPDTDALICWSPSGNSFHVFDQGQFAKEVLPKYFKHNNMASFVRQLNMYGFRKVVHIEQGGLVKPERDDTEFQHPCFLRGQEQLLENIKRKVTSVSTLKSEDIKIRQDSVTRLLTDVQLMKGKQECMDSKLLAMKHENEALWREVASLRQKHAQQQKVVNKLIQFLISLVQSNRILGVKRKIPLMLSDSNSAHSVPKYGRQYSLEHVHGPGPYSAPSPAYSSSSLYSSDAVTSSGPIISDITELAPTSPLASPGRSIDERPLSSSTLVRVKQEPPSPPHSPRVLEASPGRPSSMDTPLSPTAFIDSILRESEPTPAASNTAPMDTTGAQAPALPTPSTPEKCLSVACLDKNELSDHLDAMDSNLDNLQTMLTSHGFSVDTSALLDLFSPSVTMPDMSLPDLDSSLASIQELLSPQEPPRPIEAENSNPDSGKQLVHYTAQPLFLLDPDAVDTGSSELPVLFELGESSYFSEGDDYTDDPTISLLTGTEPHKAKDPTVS

[4] = target: T2, Protein Tat (Human immunodeficiency virus type 1 group M subtype B (isolate HXB2)(HIV-1), UniProt P04608); format: functional;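 also: tat binding to TAR RNA read out by fluorescence polarization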
T2 sequence (P04608 whole entry): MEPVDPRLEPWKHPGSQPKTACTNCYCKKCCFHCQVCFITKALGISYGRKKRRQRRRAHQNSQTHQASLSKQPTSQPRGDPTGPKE

[5] = THP-1 cell cytotoxicity, dose response, cytotoxicity control for Vif-APOBEC3G degradation inhibitor project, THP-1 cells (AID 1117359); format: functional; conditions: Human immunodeficiency virus 1, THP-1
[6] = target: T3, Mannose-6-phosphate isomerase (Homo sapiens, UniProt P34949); assay: human PMI inhibitors, high substrate, primary screen, biochemical, fluorescence intensity, high mannose 6-phosphate (AID 1220)
T3 sequence (P34949 whole entry): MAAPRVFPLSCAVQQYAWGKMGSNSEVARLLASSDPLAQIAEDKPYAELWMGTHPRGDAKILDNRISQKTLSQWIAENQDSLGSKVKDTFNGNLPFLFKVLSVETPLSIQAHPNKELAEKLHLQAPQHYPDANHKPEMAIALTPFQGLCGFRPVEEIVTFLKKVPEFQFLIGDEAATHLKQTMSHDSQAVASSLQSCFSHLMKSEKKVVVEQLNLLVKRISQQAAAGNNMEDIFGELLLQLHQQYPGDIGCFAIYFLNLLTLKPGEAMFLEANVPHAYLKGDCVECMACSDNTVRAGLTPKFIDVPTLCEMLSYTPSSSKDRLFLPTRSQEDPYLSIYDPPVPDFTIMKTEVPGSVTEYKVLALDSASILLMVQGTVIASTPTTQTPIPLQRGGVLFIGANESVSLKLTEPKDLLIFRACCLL

[7] = cells; format: functional
[8] = target: Luciferin 4-monooxygenase (Photinus pyralis, UniProt P08659); assay: Counter Screen for Luciferase-based Assay Positives. [Related pubchem assays: 620, 618, 411 ]
Luciferin 4-monooxygenase, sequence (P08659 whole entry): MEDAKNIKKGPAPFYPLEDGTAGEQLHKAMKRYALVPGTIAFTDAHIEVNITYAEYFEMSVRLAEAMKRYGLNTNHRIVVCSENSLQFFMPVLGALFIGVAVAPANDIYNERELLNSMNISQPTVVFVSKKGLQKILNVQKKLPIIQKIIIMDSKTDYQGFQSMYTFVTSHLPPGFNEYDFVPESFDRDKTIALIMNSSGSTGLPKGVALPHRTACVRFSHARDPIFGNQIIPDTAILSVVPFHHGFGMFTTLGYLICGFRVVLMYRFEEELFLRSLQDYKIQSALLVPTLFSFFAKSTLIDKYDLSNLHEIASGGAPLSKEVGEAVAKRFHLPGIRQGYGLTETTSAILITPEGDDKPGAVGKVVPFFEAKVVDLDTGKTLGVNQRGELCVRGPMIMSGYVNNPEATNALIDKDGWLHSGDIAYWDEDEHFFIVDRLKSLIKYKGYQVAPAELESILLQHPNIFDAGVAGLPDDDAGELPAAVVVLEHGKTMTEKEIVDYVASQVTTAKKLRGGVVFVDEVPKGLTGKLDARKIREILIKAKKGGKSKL

[9] = test system: HT-1080; assay: cytotoxicity in HT1080 fibrosarcoma cells, cell-based, fluorescence readout (AID 620); format: functional; conditions: Homo sapiens
[10] = target: T4, Protein RecA (Mycobacterium tuberculosis, UniProt P9WHJ3); assay: Fluorescence Cell-Free Homogeneous Dose Retest to Identify Inhibitors of RecA-Intein Splicing Activity. [Related pubchem assays (depositor defined):AID2097, AID2223, AID489010, AID492950]; format: functional
T4 sequence (P9WHJ3 whole entry): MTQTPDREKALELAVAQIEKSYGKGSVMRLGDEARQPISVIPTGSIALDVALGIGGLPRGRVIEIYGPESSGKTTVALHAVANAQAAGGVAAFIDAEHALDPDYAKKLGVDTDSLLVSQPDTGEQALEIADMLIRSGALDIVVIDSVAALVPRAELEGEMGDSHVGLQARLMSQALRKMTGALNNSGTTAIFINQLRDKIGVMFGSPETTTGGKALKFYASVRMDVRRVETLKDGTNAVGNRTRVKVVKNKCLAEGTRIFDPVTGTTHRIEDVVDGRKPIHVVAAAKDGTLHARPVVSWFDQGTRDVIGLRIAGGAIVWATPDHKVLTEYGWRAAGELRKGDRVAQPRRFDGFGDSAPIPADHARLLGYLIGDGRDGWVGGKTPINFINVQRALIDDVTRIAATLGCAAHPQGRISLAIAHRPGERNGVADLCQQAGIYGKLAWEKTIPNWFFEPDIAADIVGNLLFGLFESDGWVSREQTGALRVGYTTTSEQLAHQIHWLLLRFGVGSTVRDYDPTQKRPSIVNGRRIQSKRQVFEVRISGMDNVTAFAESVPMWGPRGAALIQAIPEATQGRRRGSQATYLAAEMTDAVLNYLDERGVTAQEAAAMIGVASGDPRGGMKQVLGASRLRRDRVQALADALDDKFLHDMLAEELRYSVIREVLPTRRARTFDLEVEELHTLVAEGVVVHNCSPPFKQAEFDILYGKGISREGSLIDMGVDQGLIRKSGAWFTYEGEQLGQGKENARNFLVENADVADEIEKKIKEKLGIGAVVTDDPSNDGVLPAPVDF

[11] = target: T5, Sentrin-specific protease 8 (Homo sapiens, UniProt Q96LD8); format: functional
T5 sequence (Q96LD8 whole entry): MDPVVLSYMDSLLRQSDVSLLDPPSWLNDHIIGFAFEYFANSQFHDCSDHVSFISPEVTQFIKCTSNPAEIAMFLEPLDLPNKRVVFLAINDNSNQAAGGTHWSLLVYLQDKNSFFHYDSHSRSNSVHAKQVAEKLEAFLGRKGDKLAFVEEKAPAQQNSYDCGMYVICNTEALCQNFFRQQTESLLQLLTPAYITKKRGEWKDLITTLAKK

[12] = target: T6, Replicative DNA helicase DnaB (Mycobacterium tuberculosis, UniProt P9WMR3); assay: DnaB intein splicing inhibitors, dose response, biochemical, cell-free fluorescence (AID 449749); format: functional
T6 sequence (P9WMR3 whole entry): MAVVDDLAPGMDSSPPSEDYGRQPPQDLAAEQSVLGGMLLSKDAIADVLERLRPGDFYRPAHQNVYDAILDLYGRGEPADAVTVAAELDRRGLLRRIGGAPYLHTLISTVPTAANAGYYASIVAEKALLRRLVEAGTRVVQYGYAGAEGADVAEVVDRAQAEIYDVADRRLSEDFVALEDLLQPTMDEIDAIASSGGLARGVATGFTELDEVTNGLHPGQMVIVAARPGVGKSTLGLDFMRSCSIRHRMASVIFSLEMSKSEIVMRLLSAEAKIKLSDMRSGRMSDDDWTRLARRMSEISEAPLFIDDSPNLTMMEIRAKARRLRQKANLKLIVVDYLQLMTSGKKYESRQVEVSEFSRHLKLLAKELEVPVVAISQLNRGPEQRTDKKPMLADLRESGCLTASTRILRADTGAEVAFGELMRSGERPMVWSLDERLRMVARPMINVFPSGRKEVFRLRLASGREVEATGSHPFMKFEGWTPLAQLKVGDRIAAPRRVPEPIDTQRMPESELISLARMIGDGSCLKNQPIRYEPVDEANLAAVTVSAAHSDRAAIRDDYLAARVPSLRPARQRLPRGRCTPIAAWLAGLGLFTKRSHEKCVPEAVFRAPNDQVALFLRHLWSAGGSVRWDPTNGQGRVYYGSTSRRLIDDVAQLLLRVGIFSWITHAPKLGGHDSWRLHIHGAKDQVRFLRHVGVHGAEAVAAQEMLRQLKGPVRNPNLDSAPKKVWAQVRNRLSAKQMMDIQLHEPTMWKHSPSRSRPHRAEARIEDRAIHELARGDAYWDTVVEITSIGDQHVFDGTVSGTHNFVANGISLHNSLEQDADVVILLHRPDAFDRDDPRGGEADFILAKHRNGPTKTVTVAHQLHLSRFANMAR

[13] = target: T5, Sentrin-specific protease 8; format: functional; remark: listed apart in the source
[14] = target: T7, Protein skinhead-1 (Caenorhabditis elegans, UniProt P34707); format: functional
T7 sequence (P34707 whole entry): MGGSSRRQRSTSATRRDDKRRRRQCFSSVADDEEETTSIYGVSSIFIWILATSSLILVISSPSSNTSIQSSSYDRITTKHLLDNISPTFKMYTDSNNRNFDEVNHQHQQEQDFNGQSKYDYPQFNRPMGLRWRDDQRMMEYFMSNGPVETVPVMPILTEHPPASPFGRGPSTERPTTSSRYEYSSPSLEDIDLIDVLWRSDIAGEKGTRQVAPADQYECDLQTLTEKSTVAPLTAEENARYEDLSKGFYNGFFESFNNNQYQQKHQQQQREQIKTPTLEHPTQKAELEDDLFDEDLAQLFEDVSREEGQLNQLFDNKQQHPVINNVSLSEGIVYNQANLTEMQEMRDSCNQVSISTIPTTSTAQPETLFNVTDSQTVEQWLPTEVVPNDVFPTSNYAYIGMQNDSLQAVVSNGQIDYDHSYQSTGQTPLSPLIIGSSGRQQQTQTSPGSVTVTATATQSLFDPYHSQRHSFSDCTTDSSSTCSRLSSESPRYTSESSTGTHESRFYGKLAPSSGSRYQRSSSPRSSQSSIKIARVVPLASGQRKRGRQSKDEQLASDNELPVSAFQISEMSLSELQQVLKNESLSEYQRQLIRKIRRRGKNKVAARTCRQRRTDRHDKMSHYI

[15] = THP-1 cell cytotoxicity, dose response, cytotoxicity control for non-replicating M. tuberculosis project (AID 489025); format: functional
[16] = target: T8, Short transient receptor potential channel 4 (Mus musculus, UniProt Q9QUQ5); assay: mouse TRPC4 channel inhibitors, dose response, cell-based, HEK293 TRPC4/mu-opioid, Fluo-4 calcium (AID 434942); format: functional;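 also: potency of inhibitors blocking the TRPC4 calcium response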
T8 sequence (Q9QUQ5 whole entry): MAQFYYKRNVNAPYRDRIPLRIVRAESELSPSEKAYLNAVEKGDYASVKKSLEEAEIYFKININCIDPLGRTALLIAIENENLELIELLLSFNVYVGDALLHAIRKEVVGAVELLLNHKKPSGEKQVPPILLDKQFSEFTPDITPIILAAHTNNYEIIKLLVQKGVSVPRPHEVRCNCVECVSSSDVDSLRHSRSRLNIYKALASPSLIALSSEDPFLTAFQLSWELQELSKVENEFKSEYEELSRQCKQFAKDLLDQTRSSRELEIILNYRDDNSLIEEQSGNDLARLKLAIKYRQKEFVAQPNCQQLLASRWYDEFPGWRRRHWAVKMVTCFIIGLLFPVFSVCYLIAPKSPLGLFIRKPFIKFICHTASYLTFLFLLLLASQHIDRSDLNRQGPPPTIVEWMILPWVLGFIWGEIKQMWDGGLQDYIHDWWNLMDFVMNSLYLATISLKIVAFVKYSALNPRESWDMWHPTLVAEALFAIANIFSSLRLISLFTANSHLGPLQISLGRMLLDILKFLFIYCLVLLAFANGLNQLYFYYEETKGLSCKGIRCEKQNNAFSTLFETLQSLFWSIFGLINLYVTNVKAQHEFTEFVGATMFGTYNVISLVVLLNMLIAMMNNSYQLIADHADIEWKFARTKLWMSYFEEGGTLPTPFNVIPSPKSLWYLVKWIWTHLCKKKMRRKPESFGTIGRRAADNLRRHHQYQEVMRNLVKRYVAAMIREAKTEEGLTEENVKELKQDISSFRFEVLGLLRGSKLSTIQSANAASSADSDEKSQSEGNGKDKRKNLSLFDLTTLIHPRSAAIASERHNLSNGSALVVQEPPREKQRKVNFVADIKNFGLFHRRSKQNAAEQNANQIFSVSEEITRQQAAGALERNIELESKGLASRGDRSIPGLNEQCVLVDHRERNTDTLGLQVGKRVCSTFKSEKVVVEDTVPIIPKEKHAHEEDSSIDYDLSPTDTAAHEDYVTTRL

[17] = NIH-3T3 fibroblast cytotoxicity, dose response, cytotoxicity control, cell-based, fluorescence, Alamar Blue, secondary assay (AID 2327); format: functional;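 also: NIH-3T3 mouse fibroblasts cultured with fluconazole at 8 µg/mL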

Large T antigen, sequence (P03070 whole entry): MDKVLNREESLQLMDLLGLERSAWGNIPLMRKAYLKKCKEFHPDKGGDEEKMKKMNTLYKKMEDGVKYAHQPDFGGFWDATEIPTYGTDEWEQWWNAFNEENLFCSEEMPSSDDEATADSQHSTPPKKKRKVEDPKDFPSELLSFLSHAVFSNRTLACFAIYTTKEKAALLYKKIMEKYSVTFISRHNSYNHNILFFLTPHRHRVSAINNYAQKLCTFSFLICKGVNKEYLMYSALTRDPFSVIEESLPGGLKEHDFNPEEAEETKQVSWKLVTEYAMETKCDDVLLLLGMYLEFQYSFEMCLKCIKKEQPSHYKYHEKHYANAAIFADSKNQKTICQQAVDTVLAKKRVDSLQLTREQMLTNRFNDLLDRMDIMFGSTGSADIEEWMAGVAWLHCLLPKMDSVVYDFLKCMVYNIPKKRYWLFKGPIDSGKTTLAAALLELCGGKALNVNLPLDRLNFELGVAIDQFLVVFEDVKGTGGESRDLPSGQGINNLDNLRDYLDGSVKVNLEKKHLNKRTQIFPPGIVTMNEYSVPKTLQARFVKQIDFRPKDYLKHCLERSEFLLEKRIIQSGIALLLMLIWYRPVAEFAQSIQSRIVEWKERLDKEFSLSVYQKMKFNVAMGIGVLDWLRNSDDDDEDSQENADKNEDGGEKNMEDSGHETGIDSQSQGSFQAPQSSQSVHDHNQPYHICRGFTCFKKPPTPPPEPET

With `CSS(=O)(=O)c1cccc2cccnc12` the IC50 [1] was 65.2 µM (active), the IC50 [2] was 9.66 µM (active) and the EC50 [3] was 19.1 µM (active).

For `CNC(=O)[C@@H]1C[C@H]1[C@@H](NC(=O)OCc1ccccc1)c1ccccc1`, the IC50 [4] was > 100 µM (active) and the CC50 [5] was > 40 µM (active).

With `CCOC(=O)N1CCN(c2cc(NCCO)c([N+](=O)[O-])c3nonc23)CC1` the IC50 [6] was > 50 µM (not active).

With `COc1ccc(C2=Nc3ccccc3OC2)cc1` the IC50 [7] was 3.76 µM (active), the EC50 [8] was < 0.2 µM (active) and the EC50 [9] was > 50 µM (not active).

For `O=C1CC(c2ccccc2)=NN1c1ccc([N+](=O)[O-])cc1`, the EC50 [10] was 4.05 µM (active), the IC50 [11] was 33.2 µM (active) and the AC50 [12] was 5.46 µM (active). The IC50 [13] was 52.3 µM (active).

For `COc1cccc(C(=O)NCCC2=CCCCC2)c1`, the EC50 [8] was < 0.2 µM (active) and the EC50 [9] was > 50 µM (not active).

In the case of `COc1cc(CNC2CCCC2)cc(Cl)c1OCc1ccc(F)cc1`, the IC50 [14] is reported as 3.33 µM (active), the CC50 [15] is reported as 19.8 µM (active) and the EC50 [16] is reported as 6.68 µM (active).

In the case of `C=CCN(CC=C)S(=O)(=O)c1ccc(C(=O)Nc2nnc(COC)o2)cc1`, the EC50 [17] is reported as 63.3 µM (active) and the CC50 [5] is reported as 15.4 µM (active).

In the case of `O=C(CNc1ccc2ccccc2c1)N/N=C/c1ccc(C(=O)O)cc1`, the IC50 [6] is reported as > 50 µM (not active).
